{"source": "patent US11613552B2", "about": "“Pharmaceutical agents, compositions, and methods relating thereto” (Alltech, Inc., priority 2017, dated 2023)", "tested_on": "Pdk1/Akt/Foxo1", "assay": "Western blot of Pdk1/Akt/Foxo1 in skeletal muscles of Lepr^db/db mice", "format": "in vivo, mouse", "settings": "0.136 mg/kg ip daily, 52 days (FIG. 18)", "experimental": "Male Lepr^db/db mice (C57BL/6J strain, purchased from The Jackson Laboratory) at 38 days of age were intraperitoneally injected daily with physiological saline ([…]) containing 0.2% DMSO or 0.136 mg of Compound #43 per kilogram body weight, diluted in the sterile physiological saline) for 52 days. After the treatment, gastrocnemius skeletal muscle samples were collected and stored at −80° C.\nFrozen skeletal muscles were minced in sterile ice-old PBS containing complete proteinase and phosphatase inhibitors (Thermo-Fisher Scientific, Waltham, Mass.) and subjected to homogenization using a tissue homogenizer (Thermo-Fisher Scientific, Waltham, Mass.). These tissue homogenates were diluted in Themo-Fisher's RIPA buffer (1 part homogenate/2 part of RIPA buffer) containing complete proteinase/phosphatase inhibitors to extract the proteins. Proteins in the homogenates were extracted in RIPA buffer at 4° C. overnight. These overnight-extracted protein/tissue lysates were centrifuged at 12000×g for 30 min at 4° C., and the protein levels in the supernatant of these tissue lysates were determined using the Pierce Micro-BCA protein assay kit (Thermo Scientific-Piece Biotechnology, Rockford, Ill.) according to the manufacturer's protocol.\nOne hundred micrograms of skeletal muscle proteins were subjected to SDS-PAGE gel separation and then transferred to PVDF membranes, as described previously (Reddy et al. 2008 Science). Membranes were blocked in a phosphate-buffered saline (PBS) containing 5% (w/v) of bovine serum albumin (Sigma, St. Louis, Mo.) and incubated with specific primary antibodies followed by the incubation with HRP-conjugated anti-mouse or anti-rabbit secondary antibodies (1:5000 dilution, Cell Signaling Inc.). All primary antibodies were purchased from Cell Signaling Inc, except the antibodies against β-tubulin (LI-COR bioscience). Positive signals on the membrane blots were detected using Amersham's enhanced chemiluminescence Western Blotting Prime Detection reagents (GE Healthcare Lifescience, Pittsburgh, Pa.). Images of these luminescence signals on the membrane blots were captured using the LI-COR Odyssey Fc Image system (Lincoln, Nebr.). The same membrane blot was stripped and re-blotted with another antibody as described in the GE WB ECL-prime-detection protocol (GE healthcare Lifescience, Pittsburgh, Pa.). Protein band densities in the Western blots were determined using the NIH ImageJ software and then normalized by β-tubulin level in each sample. Data are presented as mean±SEM of 5 animal samples.", "data": [{"molecule": "C[Se]C[C@H]1O[C@@H](n2cnc3c(N)ncnc32)C(OC(C)=O)C1OC(C)=O", "note": "(stereo partly shown) [Compound #43, Adenosine, 5′-Se-methyl-5′-selino-, 2′,3′-diacetate]", "values": [{"measurement": "pAkt protein levels in skeletal muscle", "result": "significantly elevated"}, {"measurement": "pFoxo1 protein levels in skeletal muscle", "result": "significantly elevated"}, {"measurement": "total Akt and Foxo1 protein levels in skeletal muscle", "result": "no significant change"}, {"measurement": "pPdk1 protein levels in skeletal muscle", "setting": "P=0.11", "result": "approached statistical significance"}]}]}
